Experimental data reported in article doi:10.1101/2024.08.13.607785v1 (biorxiv, 2024).
Like-named read-outs stand apart in the source and are kept apart here.

Legend:
Assay in all cases: biochemical
[1] = target: Cyclin-dependent kinase 8 ; CDK8 ; P49336 (Homo sapiens, UniProt P49336); parameters: species or system human cell line lysate
[2] = target: Cyclin-dependent kinase 13 ; CDK13 ; Q14004 (Homo sapiens, UniProt Q14004); parameters: species or system human cell line lysate
[3] = target: Cyclin-dependent kinase 4 ; CDK4 ; P11802 (Homo sapiens, UniProt P11802); parameters: species or system human cell line lysate
Sequence of Cyclin-dependent kinase 4 ; CDK4 ; P11802 (P11802 whole entry, one chain of several): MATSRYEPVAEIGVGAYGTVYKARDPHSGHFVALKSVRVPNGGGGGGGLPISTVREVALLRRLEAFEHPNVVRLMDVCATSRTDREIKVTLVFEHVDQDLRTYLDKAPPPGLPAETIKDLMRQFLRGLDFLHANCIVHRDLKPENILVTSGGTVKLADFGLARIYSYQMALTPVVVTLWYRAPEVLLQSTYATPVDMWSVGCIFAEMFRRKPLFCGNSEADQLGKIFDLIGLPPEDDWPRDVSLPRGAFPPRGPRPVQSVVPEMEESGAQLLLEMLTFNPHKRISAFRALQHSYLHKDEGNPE

[4] = target: T1, Interleukin-1 receptor-associated kinase 3 ; IRAK3 ; Q9Y616 (Homo sapiens, UniProt Q9Y616); parameters: species or system human cell line lysate
T1 sequence (Q9Y616 1-596): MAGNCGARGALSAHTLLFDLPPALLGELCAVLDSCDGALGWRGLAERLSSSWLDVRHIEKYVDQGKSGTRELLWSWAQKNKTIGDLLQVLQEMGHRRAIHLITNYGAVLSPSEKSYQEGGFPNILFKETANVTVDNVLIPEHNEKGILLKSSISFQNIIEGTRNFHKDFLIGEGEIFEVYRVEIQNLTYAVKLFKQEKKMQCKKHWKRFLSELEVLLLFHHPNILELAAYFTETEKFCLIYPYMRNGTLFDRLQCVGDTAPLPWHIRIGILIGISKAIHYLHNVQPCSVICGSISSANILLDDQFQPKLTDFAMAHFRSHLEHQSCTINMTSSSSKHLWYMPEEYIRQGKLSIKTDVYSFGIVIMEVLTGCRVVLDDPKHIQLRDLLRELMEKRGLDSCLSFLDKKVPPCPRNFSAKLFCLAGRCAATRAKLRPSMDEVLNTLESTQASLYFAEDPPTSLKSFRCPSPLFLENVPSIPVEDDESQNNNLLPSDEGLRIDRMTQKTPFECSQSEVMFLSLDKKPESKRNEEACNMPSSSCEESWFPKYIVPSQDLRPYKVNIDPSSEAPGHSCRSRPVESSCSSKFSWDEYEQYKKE

[5] = target: Non-receptor tyrosine-protein kinase TYK2 ; TYK2 ; P29597 (Homo sapiens, UniProt P29597); parameters: species or system human cell line lysate
[6] = target: T2, Cyclin-dependent kinase-like 5 ; CDKL5 ; O76039 (Homo sapiens, UniProt O76039); parameters: species or system human cell line lysate
T2 sequence (O76039 1-960): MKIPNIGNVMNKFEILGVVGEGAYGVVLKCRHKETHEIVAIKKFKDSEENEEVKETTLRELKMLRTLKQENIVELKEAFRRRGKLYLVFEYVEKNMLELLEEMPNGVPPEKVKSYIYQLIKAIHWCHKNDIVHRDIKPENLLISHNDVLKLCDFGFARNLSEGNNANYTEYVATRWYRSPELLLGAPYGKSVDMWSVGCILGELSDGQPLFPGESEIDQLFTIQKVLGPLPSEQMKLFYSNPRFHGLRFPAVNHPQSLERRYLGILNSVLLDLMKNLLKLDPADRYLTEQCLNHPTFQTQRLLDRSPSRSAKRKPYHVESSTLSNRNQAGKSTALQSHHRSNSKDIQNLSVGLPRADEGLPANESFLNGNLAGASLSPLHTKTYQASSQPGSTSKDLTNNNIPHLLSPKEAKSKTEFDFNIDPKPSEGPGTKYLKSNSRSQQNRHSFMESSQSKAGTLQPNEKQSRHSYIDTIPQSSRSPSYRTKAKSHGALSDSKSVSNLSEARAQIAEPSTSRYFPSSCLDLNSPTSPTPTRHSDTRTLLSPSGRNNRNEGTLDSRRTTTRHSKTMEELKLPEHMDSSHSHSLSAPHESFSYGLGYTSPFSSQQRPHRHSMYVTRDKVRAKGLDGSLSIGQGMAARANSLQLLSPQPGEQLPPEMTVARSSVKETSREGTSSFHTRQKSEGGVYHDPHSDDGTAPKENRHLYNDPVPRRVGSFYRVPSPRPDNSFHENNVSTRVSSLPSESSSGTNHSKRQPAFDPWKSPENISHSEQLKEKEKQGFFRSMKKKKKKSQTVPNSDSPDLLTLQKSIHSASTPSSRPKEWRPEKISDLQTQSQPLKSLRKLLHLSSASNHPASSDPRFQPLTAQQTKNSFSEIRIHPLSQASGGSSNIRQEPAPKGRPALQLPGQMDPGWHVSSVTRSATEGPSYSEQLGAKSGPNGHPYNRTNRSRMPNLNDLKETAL

[7] = target: T3, Mast/stem cell growth factor receptor Kit ; KIT ; P10721 (Homo sapiens, UniProt P10721); parameters: species or system human cell line lysate
T3 sequence (P10721 whole entry, one chain of several): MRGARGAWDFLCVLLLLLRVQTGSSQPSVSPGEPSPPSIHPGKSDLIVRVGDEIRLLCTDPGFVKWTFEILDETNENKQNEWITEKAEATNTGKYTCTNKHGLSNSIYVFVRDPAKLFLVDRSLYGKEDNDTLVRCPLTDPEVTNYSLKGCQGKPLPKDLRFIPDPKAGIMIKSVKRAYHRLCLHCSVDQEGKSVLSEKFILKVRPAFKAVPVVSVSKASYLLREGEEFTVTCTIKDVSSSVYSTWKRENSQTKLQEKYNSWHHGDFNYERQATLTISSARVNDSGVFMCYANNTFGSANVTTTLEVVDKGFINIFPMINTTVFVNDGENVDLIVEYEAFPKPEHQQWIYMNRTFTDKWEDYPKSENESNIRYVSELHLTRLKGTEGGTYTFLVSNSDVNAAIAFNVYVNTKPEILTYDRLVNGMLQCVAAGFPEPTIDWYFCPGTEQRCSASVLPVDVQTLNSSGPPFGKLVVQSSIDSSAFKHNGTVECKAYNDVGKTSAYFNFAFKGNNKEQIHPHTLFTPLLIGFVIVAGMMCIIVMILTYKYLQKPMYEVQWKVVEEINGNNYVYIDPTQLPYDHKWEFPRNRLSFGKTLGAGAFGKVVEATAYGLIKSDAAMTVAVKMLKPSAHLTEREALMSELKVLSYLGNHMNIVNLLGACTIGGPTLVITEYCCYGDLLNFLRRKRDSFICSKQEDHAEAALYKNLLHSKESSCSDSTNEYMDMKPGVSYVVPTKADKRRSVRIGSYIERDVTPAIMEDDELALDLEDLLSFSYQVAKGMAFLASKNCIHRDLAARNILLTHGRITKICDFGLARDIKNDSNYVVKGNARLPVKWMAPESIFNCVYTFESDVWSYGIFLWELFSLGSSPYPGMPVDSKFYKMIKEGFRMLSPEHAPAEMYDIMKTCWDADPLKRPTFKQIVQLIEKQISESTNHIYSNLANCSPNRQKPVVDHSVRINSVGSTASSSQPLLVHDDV

[8] = target: Cyclin-dependent kinase 19 ; CDK19 ; Q9BWU1 (Homo sapiens, UniProt Q9BWU1); parameters: species or system human cell line lysate
Sequence of Cyclin-dependent kinase 19 ; CDK19 ; Q9BWU1 (Q9BWU1 whole entry, one chain of several): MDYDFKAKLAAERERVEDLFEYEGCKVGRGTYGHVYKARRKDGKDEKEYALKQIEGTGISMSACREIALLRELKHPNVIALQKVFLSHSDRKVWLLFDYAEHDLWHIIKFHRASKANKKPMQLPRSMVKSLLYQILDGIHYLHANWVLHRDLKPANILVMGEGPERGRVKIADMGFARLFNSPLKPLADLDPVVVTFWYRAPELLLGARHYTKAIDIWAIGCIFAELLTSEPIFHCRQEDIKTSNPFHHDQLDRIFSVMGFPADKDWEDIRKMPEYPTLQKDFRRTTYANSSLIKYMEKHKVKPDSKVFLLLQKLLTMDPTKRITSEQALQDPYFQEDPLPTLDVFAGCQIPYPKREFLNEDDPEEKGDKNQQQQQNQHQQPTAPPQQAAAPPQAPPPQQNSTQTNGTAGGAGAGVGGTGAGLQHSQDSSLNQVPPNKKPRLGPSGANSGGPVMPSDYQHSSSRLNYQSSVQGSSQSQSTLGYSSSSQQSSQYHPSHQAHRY

[9] = target: Calcium/calmodulin-dependent protein kinase kinase 1 ; CAMKK1 ; Q8N5S9 (Homo sapiens, UniProt Q8N5S9); parameters: species or system human cell line lysate
[10] = target: T3, Mast/stem cell growth factor receptor Kit ; KIT ; P10721; parameters: species or system mixed lysate of K562, MV4-11, THP-1, NCI-H1155
[11] = target: Calcium/calmodulin-dependent protein kinase kinase 2 ; CAMKK2 ; Q96RR4 (Homo sapiens, UniProt Q96RR4); parameters: species or system mixed lysate of K562, MV4-11, THP-1, NCI-H1155
Sequence of Calcium/calmodulin-dependent protein kinase kinase 2 ; CAMKK2 ; Q96RR4 (Q96RR4 whole entry, one chain of several): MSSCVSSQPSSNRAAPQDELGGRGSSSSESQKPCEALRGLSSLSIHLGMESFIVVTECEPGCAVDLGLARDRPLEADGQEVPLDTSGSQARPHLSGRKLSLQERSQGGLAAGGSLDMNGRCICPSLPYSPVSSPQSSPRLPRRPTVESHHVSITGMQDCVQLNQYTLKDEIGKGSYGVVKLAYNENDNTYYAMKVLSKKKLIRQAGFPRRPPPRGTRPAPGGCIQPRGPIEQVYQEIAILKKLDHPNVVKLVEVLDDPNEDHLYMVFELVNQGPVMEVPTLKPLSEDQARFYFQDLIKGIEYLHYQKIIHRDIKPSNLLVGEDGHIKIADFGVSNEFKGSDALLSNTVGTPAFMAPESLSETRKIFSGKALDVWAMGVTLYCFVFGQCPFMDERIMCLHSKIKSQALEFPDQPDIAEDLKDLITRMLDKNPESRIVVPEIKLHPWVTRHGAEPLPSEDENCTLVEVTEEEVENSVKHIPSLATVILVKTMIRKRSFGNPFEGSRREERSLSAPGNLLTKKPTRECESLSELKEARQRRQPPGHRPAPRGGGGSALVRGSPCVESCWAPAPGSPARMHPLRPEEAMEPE

[12] = target: Glycogen synthase kinase-3 alpha ; GSK3A ; P49840 (Homo sapiens, UniProt P49840); parameters: species or system mixed lysate of K562, MV4-11, THP-1, NCI-H1155
Sequence of Glycogen synthase kinase-3 alpha ; GSK3A ; P49840 (P49840 whole entry): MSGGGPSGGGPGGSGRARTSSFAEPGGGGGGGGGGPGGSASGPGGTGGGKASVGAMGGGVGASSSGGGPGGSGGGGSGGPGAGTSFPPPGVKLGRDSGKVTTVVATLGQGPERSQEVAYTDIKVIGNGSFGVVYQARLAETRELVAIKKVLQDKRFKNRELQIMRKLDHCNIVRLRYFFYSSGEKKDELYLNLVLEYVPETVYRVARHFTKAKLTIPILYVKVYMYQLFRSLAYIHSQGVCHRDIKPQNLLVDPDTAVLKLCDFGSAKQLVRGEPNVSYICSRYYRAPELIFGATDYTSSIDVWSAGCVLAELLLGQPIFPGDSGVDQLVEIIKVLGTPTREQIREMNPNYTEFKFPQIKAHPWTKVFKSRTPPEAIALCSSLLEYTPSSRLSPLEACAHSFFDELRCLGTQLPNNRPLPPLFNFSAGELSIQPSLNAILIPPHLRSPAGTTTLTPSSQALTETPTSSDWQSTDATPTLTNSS

[13] = read-out: BAY-1143572 (10 µM) / %Intensity relative to DMSO
[14] = read-out: BAY-1251152 (10 µM) / %Intensity relative to DMSO

Sequence of Cyclin-dependent kinase 13 ; CDK13 ; Q14004 (Q14004 whole entry, one chain of several): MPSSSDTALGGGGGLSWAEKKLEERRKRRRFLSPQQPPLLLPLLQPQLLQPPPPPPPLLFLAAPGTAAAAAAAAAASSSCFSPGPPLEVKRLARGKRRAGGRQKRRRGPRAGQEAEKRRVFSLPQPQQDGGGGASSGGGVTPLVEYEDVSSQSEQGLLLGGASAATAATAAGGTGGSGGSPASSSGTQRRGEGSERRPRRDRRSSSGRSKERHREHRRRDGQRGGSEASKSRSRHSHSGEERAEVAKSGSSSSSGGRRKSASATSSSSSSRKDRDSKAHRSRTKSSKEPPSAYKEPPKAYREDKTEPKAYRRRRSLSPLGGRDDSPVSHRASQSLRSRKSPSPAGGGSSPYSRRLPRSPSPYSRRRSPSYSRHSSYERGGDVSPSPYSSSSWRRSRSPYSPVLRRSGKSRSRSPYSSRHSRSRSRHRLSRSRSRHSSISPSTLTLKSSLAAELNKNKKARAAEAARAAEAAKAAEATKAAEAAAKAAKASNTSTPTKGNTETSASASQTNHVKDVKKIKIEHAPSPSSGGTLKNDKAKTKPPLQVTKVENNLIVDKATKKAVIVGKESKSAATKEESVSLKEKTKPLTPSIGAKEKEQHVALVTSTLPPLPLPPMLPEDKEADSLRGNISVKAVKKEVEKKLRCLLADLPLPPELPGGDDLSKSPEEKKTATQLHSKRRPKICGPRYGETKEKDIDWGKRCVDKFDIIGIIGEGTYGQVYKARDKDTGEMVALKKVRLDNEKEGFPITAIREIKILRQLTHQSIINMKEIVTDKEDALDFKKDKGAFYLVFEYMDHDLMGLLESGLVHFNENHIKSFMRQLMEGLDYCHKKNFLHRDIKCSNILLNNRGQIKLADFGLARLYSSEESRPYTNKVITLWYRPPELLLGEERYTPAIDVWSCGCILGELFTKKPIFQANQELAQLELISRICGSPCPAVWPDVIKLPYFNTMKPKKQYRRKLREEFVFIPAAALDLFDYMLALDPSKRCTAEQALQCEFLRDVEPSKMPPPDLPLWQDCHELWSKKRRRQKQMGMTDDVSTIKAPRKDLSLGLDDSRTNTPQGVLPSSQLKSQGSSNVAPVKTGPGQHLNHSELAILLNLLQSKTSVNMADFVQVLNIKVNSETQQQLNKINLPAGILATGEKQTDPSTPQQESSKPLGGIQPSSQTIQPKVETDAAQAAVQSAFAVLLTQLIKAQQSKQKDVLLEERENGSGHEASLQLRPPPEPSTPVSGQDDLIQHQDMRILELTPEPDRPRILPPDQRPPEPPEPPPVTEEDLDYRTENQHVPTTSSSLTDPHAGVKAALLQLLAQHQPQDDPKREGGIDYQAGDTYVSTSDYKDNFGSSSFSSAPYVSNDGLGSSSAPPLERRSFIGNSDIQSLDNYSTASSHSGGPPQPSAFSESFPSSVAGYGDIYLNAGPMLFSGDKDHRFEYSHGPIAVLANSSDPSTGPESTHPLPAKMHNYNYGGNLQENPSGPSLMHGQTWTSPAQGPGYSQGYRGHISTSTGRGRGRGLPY
Sequence of Cyclin-dependent kinase 8 ; CDK8 ; P49336 (P49336 whole entry, one chain of several): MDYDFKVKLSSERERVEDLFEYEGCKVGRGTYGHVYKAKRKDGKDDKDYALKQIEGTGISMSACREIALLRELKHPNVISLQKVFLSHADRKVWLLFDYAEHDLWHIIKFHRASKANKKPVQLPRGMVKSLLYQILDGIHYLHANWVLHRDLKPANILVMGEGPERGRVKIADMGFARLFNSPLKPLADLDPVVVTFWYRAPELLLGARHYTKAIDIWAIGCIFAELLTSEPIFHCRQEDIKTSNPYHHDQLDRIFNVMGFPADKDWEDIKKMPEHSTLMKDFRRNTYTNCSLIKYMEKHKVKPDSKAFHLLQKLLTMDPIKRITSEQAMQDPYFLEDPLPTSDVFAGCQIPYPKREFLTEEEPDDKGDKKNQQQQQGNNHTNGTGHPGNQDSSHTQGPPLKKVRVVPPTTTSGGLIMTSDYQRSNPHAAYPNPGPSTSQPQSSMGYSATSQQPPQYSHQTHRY

SMILES	IC50 [1] [µM]	IC50 [2] [µM]	IC50 [3] [µM]	IC50 [4] [µM]	IC50 [5] [µM]	IC50 [6] [µM]	IC50 [7] [µM]	IC50 [8] [µM]	IC50 [9] [µM]	remaining activity at 10 µM [10, 13] [%]	remaining activity at 10 µM [11, 13] [%]	remaining activity at 10 µM [12, 13] [%]	remaining activity at 10 µM [10, 14] [%]	remaining activity at 10 µM [11, 14] [%]	remaining activity at 10 µM [12, 14] [%]
COc1cc(F)ccc1-c1ncnc(Nc2cccc(C[S@](C)(=N)=O)c2)n1 [BAY-1143572]	> 10	> 10	> 10	2.98	2.99	3.36	0.649	> 10	0.379	24.3	50.1	3.48	–	–	–
COc1cc(F)ccc1-c1cc(Nc2cc(CS(C)(=N)=O)ccn2)ncc1F (stereo not drawn) [BAY-1251152]	> 10	> 10	> 10	> 10	> 10	> 10	> 10	> 10	0.305	–	–	–	102	29.2	5.28
